Biological target: T1, Rat testicular C17,20 lyase (Rattus norvegicus, UniProt P11715)
T1 construct: testes were excised, capsules were removed, and the tissue was weighed; from tissue; host or cells: testes of male Copenhagen rats (Harlan Laboratories), 10,000 x G supernatant of homogenate
T1 sequence (P11715 1-507): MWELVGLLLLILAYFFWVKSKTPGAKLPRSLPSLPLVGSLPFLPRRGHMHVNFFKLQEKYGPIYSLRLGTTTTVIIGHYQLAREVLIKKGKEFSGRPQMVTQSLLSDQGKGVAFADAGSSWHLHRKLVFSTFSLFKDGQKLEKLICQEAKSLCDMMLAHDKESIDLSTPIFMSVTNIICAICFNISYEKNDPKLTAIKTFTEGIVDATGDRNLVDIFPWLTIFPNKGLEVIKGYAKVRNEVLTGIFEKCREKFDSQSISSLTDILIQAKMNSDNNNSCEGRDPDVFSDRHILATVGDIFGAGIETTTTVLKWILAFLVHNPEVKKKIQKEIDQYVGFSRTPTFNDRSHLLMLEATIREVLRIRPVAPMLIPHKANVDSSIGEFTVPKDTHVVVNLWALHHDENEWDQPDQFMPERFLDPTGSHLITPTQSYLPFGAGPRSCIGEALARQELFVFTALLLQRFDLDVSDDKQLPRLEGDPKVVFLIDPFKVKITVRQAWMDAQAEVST
Assay: Ex vivo inhibition of C17,20 lyase in rat testes after dosing
Set-up: species or system Male Copenhagen rats
Description: Ex vivo inhibition of C17,20 lyase: MDL 103,432 was tested for ex vivo inhibition of rat and nude mouse testes lyase. Male Copenhagen rats and male athymic nude mice obtained from Harlan Laboratories, Indianapolis, IN, were divided into groups of 5 to 6 based on weight. Average weight was 100-140 g each for rats and 18-35 g each for the mice. Prior to oral dosing, animals were fasted overnight. Test compound was prepared by micronization in a lecithin vehicle using a glass Teflon® pestle-type homogenizer. The compound was brought to volume using lecithin so as to administer 0.5 mL per 100 g animal. Rats and nude mice were given vehicle only (controls) or vehicle plus test compounds peros. Rats were also given the compound in lecithin or lecithin alone subcutaneously. Each group consisted of 5-6 animals. At a specified time after dosing, the animals were anesthetized with CO2 gas, sacrificed by cervical dislocation, testes were excised, capsules were removed, and the tissue was weighed. Two volumes (w/v) of 0.05 M potassium phosphate buffer, pH 7.2, was added to the rat testes tissue on ice, and 11 volumes (w/v) of the same buffer were added to the mouse testes. Tissue was then homogenized using 20 strokes with a Dounce homogenizer equipped with a tight pestle. Homogenized tissue was centrifuged at 800 x G then at 10,000 x G for 15 minutes each. Supernatant was decanted, reserved, and kept chilled on ice. Assays for lyase activity contained the same buffer and NADPH regenerating system described above and also contained […] of 10,000 x G supernatant which was diluted 3-fold resulting in a 5-fold dilution overall in the final assay volume. Substrate, 17α-hydroxyprogesterone plus 1,3-[^3H]-17α-hydroxyprogesterone (40-57 mCi/mmole; 0.18 µCi per assay) to yield a final concentration of 0.1 µM, (=Km) was added to the remaining assay components after a 5 minute equilibration a 20°C of the latter. The total assay volume was 200 µL. Activity was assayed for 20 seconds at 20°C. Assays were terminated, extracted and analyzed as described above except that carrier steroids were 17α-hydroxyprogesterone, androst-4-ene-dione, and testosterone. The organic phase containing the steroids was evaporated using nitrogen gas, the residues dissolved in 18% tetrahydrofuran (v/v) in hexane, and the steroid substrate, 17α-hydroxyprogesterone, and products (AED, TEST) were separated by HPLC on a Si60 (5 µm) column (250 x 4 mm) using 20% (v/v) tetrahydrofuran (THF) in hexane for 20 minutes then ramping to 60% THF (v/v) for 11 minutes. Activity of test compound was expressed as percent inhibition relative to the control and was the mean of each group of treated animals.

## CC12CCC3C(CC[C@H]4NC(=O)CCC34C)C1CC[C@@H]2OC1CC1 (stereo partly drawn) [MDL 103,432, 17β-Cyclopropyloxy-4-aza-5α-androstan-3-one]
po, 50 mg/kg p.o., 4 hr after dosing
  inhibition at 50 mg/kg: 66.4%
po, 50 mg/kg p.o., 24 hr after dosing
  inhibition at 50 mg/kg: 52.7%
sc, 50 mg/kg s.c., 4 hr after dosing
  inhibition at 50 mg/kg: 32.9%
sc, 50 mg/kg s.c., 24 hr after dosing
  inhibition at 50 mg/kg: 40.7%

Source: EP0880540B1, “17-BETA-CYCLOPROPYL(AMINO/OXY) 4-AZA STEROIDS AS ACTIVE INHIBITORS OF TESTOSTERONE 5-ALPHA-REDUCTASE AND C17-20-LYASE” (Aventis Pharmaceuticals Inc., priority 1996, dated 1997)
